Measured values as given in PubChem BioAssay (NCI).
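Each compound was tested at five concentrations against cells in 96-well plates for 48 hours. The concentration for 50% growth inhibition is given as GI50. TGI marks complete inhibition of growth.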

Legend:
Assay in all cases: DTP human tumour cell line panel, 48 h
A498 renal = test system: A498 renal
MCF7 breast = test system: MCF7 breast
MDA-MB-231 breast = test system: MDA-MB-231 breast
HOP-62 NSCLC = test system: HOP-62 NSCLC
SN12C renal = test system: SN12C renal
MOLT-4 leukemia = test system: MOLT-4 leukemia
SR leukemia = test system: SR leukemia
T-47D breast = test system: T-47D breast
MALME-3M melanoma = test system: MALME-3M melanoma
UO-31 renal = test system: UO-31 renal
UACC-62 melanoma = test system: UACC-62 melanoma
IGROV1 ovarian = test system: IGROV1 ovarian
NCI-H460 lung = test system: NCI-H460 lung
K-562 leukemia = test system: K-562 leukemia
HCT-116 colon = test system: HCT-116 colon
OVCAR-3 ovarian = test system: OVCAR-3 ovarian
SK-MEL-28 melanoma = test system: SK-MEL-28 melanoma
CAKI-1 renal = test system: CAKI-1 renal
UACC-257 melanoma = test system: UACC-257 melanoma
M14 melanoma = test system: M14 melanoma
HCC-2998 colon = test system: HCC-2998 colon
SK-MEL-5 melanoma = test system: SK-MEL-5 melanoma
SNB-75 CNS = test system: SNB-75 CNS
HOP-92 NSCLC = test system: HOP-92 NSCLC
SF-295 CNS = test system: SF-295 CNS
HS 578T breast = test system: HS 578T breast
HL-60(TB) leukemia = test system: HL-60(TB) leukemia
RPMI-8226 leukemia = test system: RPMI-8226 leukemia
COLO 205 colon = test system: COLO 205 colon
CCRF-CEM leukemia = test system: CCRF-CEM leukemia
NCI-H226 lung = test system: NCI-H226 lung
LOX IMVI melanoma = test system: LOX IMVI melanoma
BT-549 breast = test system: BT-549 breast
OVCAR-5 ovarian = test system: OVCAR-5 ovarian
ACHN renal = test system: ACHN renal
SF-539 CNS = test system: SF-539 CNS
OVCAR-8 ovarian = test system: OVCAR-8 ovarian
SW-620 colon = test system: SW-620 colon
NCI/ADR-RES ovarian = test system: NCI/ADR-RES ovarian
MDA-MB-435 = test system: MDA-MB-435
SNB-19 CNS = test system: SNB-19 CNS
A549 NSCLC = test system: A549 NSCLC
HCT-15 colon = test system: HCT-15 colon
TK-10 renal = test system: TK-10 renal
U251 CNS = test system: U251 CNS
SK-OV-3 ovarian = test system: SK-OV-3 ovarian
OVCAR-4 ovarian = test system: OVCAR-4 ovarian
NCI-H522 lung = test system: NCI-H522 lung
SK-MEL-2 melanoma = test system: SK-MEL-2 melanoma
EKVX NSCLC = test system: EKVX NSCLC
NCI-H23 lung = test system: NCI-H23 lung
RXF 393 renal = test system: RXF 393 renal
PC-3 prostate = test system: PC-3 prostate
KM12 colon = test system: KM12 colon
HT29 colon = test system: HT29 colon
786-0 renal = test system: 786-0 renal
DU-145 prostate = test system: DU-145 prostate
SF-268 CNS = test system: SF-268 CNS

COc1cccc(/C=C/C(=O)c2cc3c(N)c(C(=O)Nc4cccc(Cl)c4C)sc3nc2C)c1
GI50 (A498 renal): 897 nM
TGI (A498 renal): 3070 nM
GI50 (MCF7 breast): 473 nM
TGI (MCF7 breast): > 24800 nM
GI50 (MDA-MB-231 breast): 1130 nM
TGI (MDA-MB-231 breast): 2680 nM
GI50 (HOP-62 NSCLC): 1100 nM
TGI (HOP-62 NSCLC): 4640 nM
GI50 (SN12C renal): 1210 nM
TGI (SN12C renal): 3430 nM
GI50 (MOLT-4 leukemia): 1260 nM
TGI (MOLT-4 leukemia): > 50000 nM
GI50 (SR leukemia): 217 nM
TGI (SR leukemia): > 12300 nM
GI50 (T-47D breast): 1520 nM
TGI (T-47D breast): 7820 nM
GI50 (MALME-3M melanoma): 1340 nM
TGI (MALME-3M melanoma): 7760 nM
GI50 (UO-31 renal): 809 nM
TGI (UO-31 renal): 1970 nM
GI50 (UACC-62 melanoma): 844 nM
TGI (UACC-62 melanoma): 3500 nM
GI50 (IGROV1 ovarian): 832 nM
TGI (IGROV1 ovarian): 1850 nM
GI50 (NCI-H460 lung): 1380 nM
TGI (NCI-H460 lung): 4450 nM
GI50 (K-562 leukemia): 241 nM
TGI (K-562 leukemia): > 50000 nM
GI50 (HCT-116 colon): 605 nM
TGI (HCT-116 colon): 1420 nM
GI50 (OVCAR-3 ovarian): 854 nM
TGI (OVCAR-3 ovarian): 2000 nM
GI50 (SK-MEL-28 melanoma): 1260 nM
TGI (SK-MEL-28 melanoma): 4700 nM
GI50 (CAKI-1 renal): 884 nM
TGI (CAKI-1 renal): 2530 nM
GI50 (UACC-257 melanoma): 3480 nM
TGI (UACC-257 melanoma): 20900 nM
GI50 (M14 melanoma): 1020 nM
TGI (M14 melanoma): 2780 nM
GI50 (HCC-2998 colon): 971 nM
TGI (HCC-2998 colon): 1830 nM
GI50 (SK-MEL-5 melanoma): 1000 nM
TGI (SK-MEL-5 melanoma): 2340 nM
GI50 (SNB-75 CNS): 679 nM
TGI (SNB-75 CNS): > 12100 nM
GI50 (HOP-92 NSCLC): 1040 nM
TGI (HOP-92 NSCLC): 3160 nM
GI50 (SF-295 CNS): 1500 nM
TGI (SF-295 CNS): 9560 nM
GI50 (HS 578T breast): 1710 nM
TGI (HS 578T breast): > 50000 nM
GI50 (HL-60(TB) leukemia): 927 nM
TGI (HL-60(TB) leukemia): 2840 nM
GI50 (RPMI-8226 leukemia): 257 nM
TGI (RPMI-8226 leukemia): 1570 nM
GI50 (COLO 205 colon): 1380 nM
TGI (COLO 205 colon): 3630 nM
GI50 (CCRF-CEM leukemia): 234 nM
TGI (CCRF-CEM leukemia): > 50000 nM
GI50 (NCI-H226 lung): 983 nM
TGI (NCI-H226 lung): 2530 nM
GI50 (LOX IMVI melanoma): 676 nM
TGI (LOX IMVI melanoma): 1450 nM
GI50 (BT-549 breast): 1000 nM
TGI (BT-549 breast): 2800 nM
GI50 (OVCAR-5 ovarian): 1220 nM
TGI (OVCAR-5 ovarian): 3440 nM
GI50 (ACHN renal): 811 nM
TGI (ACHN renal): 1950 nM
GI50 (SF-539 CNS): 967 nM
TGI (SF-539 CNS): 2010 nM
GI50 (OVCAR-8 ovarian): 1490 nM
TGI (OVCAR-8 ovarian): > 50000 nM
GI50 (SW-620 colon): 472 nM
TGI (SW-620 colon): 3850 nM
GI50 (NCI/ADR-RES ovarian): 883 nM
TGI (NCI/ADR-RES ovarian): 3080 nM
GI50 (MDA-MB-435): 345 nM
TGI (MDA-MB-435): 1320 nM
GI50 (SNB-19 CNS): 1290 nM
TGI (SNB-19 CNS): 6180 nM
GI50 (A549 NSCLC): 1720 nM
TGI (A549 NSCLC): > 50000 nM
GI50 (HCT-15 colon): 510 nM
TGI (HCT-15 colon): 1460 nM
GI50 (TK-10 renal): 1530 nM
TGI (TK-10 renal): 8190 nM
GI50 (U251 CNS): 959 nM
TGI (U251 CNS): 2050 nM
GI50 (SK-OV-3 ovarian): 2200 nM
TGI (SK-OV-3 ovarian): > 50000 nM
GI50 (OVCAR-4 ovarian): 1640 nM
TGI (OVCAR-4 ovarian): > 14100 nM
GI50 (NCI-H522 lung): 424 nM
TGI (NCI-H522 lung): 2860 nM
GI50 (SK-MEL-2 melanoma): 1640 nM
TGI (SK-MEL-2 melanoma): 12900 nM
GI50 (EKVX NSCLC): 2610 nM
TGI (EKVX NSCLC): > 31800 nM
GI50 (NCI-H23 lung): 1340 nM
TGI (NCI-H23 lung): 5400 nM
GI50 (RXF 393 renal): 573 nM
TGI (RXF 393 renal): 1290 nM
GI50 (PC-3 prostate): 1430 nM
TGI (PC-3 prostate): 7340 nM
GI50 (KM12 colon): 1020 nM
TGI (KM12 colon): 2800 nM
GI50 (HT29 colon): 418 nM
TGI (HT29 colon): 2410 nM
GI50 (786-0 renal): 823 nM
TGI (786-0 renal): 1830 nM
GI50 (DU-145 prostate): 1330 nM
TGI (DU-145 prostate): 3980 nM
GI50 (SF-268 CNS): 1570 nM
TGI (SF-268 CNS): 14400 nM
